This note sets out measurements from publication PMC10053621 (Pharmaceutics, 2023).

Data set [1] concerns E. coli. Description: Biofilm formation assay (crystal violet). The data set is classed as cell-based, Escherichia coli. The settings on record: 8 h at 37 °C, absorbance at 550 nm, n = 4. As for the experimental part: E. coli cells were thawed, cultured overnight, and then subcultured. […] To prevent subsequent background staining, the culture medium was removed and washed three times with distilled water. Then, 125 μL of crystal violet solution (0.1%, w/v) was added to the cells, which were incubated for another 10 min. Thereafter, the solution was removed, and the cells were washed with water and dried overnight. Lastly, 125 µL of a 30% acetic acid solution was added to the cells, which were incubated for 10 min to dissolve the film. The absorbance of the cells was then measured using a microplate reader (VERSAmax, Molecular Devices, Sunnyvale, CA, USA) at a wavelength of 550 nm.

The subject of data set [2] is Staphylococcus aureus (S. aureus). Description: Bacterial growth assay (turbidity, OD600). The settings on record: 100 µg/mL, 1-8 h. The data set is classed as cell-based. Here is the method:
(§1) The antibacterial effect of FKFL-G2 was evaluated using Escherichia coli (E. coli) DH5α, which is kanamycin-resistant, and Staphylococcus aureus (S. aureus). Bacterial growth was estimated based on turbidity measurements, a commonly used method of evaluating the density of bacteria grown on a solution medium. In this process, E. coli and S. aureus bacteria were thawed, cultured overnight, and subcultured. […] The optical density (OD) of each sample was measured at a wavelength of 600 nm using an ultraviolet–visible spectrophotometer (OPTIZEN QX, Optizen, Daejeon, Republic of Korea).

A short description of data set [3]: Zeta potential and mean diameter (Zetasizer Nano ZS, DLS). The settings on record: for Diameter / Polydispersity (PDI): DLS at RT, repeated three times; for Zeta Potential: room temperature, triplicate. The data set is classed as physicochemical. As for the experimental part: The surface charge and the mean diameter of the FKFL-G2 were measured in triplicate and evaluated at various concentrations at room temperature using a Zetasizer Nano ZS (Malvern Panalytical, Malvern, UK).

Data set [4] deals with E. coli. Put plainly: Scanning electron microscopy of treated bacteria. The data set is classed as cell-based, Escherichia coli. The settings on record: 8 h at 37 °C. As for the experimental part: (§2) Bacterial morphology with untreated or Amp, Kan, G2, and FKFL-G2-treated was observed using field emission scanning electron microscopy (FE-SEM; S-4800, Hitachi, Tokyo, Japan). E. coli and S. aureus bacteria were cultured and incubated with experimental and control samples for 8 h at 37 °C while being shaken at 225 rpm. Thereafter, 50 µL of the bacterial solution of each culture was placed on a silicon wafer and dried at room temperature. The bacteria-containing wafers were placed on a 24-well plate and treated with 4% paraformaldehyde for 30 min. The surfaces were then washed using various concentrations of ethanol solution 0%, 25%, 50%, 75%, and 99.9%. The washed wafers were coated with platinum for 90 s; after which, and the appearance of bacteria was observed using FE-SEM (S-4800, Hitachi, Tokyo, Japan). The shapes of treated bacterial cells were compared with those of nontreated corresponding bacterial cells.

The test system of data set [5] is E. coli. Description: Colony-forming unit assay. The data set is classed as cell-based, Escherichia coli. The settings on record: 100 µg/mL, 24 h growth on agar plate, n = 3. Here is the method: (§3) A colony-forming unit assay was performed to determine the effect of FKFL-G2 on bacterial colony formation. This process followed the same steps as the turbidity test in Section 2.5. The OD of the cells was measured after 24 h of growth. The cell solution was diluted by a factor of 10^7; after which, 100 µL of the diluted solution was sprayed onto an agar plate and incubated in a shaking incubator for 24 h at 37 °C. The number of colonies produced was then observed.

Data set [6] deals with S. aureus. Description: Membrane permeabilization assay (NPN). The data set is classed as cell-based, Staphylococcus aureus. The settings on record: 100 µL of 1 mg/mL in 1 mL, 30 min, HEPES pH 7.8, ex 350 / em 429 nm, n = 3. As for the experimental part:
(§4) To evaluate the ability of FKFL-G2 to disrupt bacterial cell membranes, the membrane permeabilization assay was performed using N-phenyl-1-naphthylamine (NPN). E. coli and S. aureus bacteria were thawed and cultured overnight at 37 °C while being shaken at 180 rpm. After the absorbance of the bacterial solutions reached an OD600 of 1.0, the bacterial cells were harvested via centrifugation at 3500 rpm for 10 min. The bacterial pellet was washed twice with 4-(2-hydroxyethyl)-1-piperazineethanesulfonic acid (HEPES) buffer (pH 7.8). The bacterial pellets were then subjected to another round of centrifugation at 3500 rpm for 10 min and resuspended in 1 mL of HEPES (pH 7.8) to make bacterial solutions. […] Triton X-100, a well-known surfactant with a high capacity to destroy cell membranes, was used as a control. The fluorescence of each solution was measured using a fluorometer (LS45 Fluorescence Spectrometer, PerkinElmer, Waltham, MA, USA) at an excitation wavelength of 350 nm and emission wavelength of 429 nm.

In data set [7] the test system is S. aureus. Put plainly: Colony-forming unit assay. The data set is classed as cell-based, Staphylococcus aureus. The settings on record: 100 µg/mL, 24 h growth on agar plate, n = 3. Here is the method: as §3
Data set [8] concerns S. aureus. Description: Scanning electron microscopy of treated bacteria. The data set is classed as cell-based, Staphylococcus aureus. The settings on record: 8 h at 37 °C. As for the experimental part:
as §2

The test system of data set [9] is NIH3T3 cells. As for the experimental part:
NIH3T3 cells were used to evaluate the cytotoxicity of the FKFL-G2 dendrimer. A total of 1.8 × 10^4 cells/well were seeded in a 96-well plate and incubated in 90 µL of Dulbecco’s modified Eagle’s medium, containing 10% (v/v) fetal bovine serum and 1% (w/v) penicillin/streptomycin, for 16 h at 37 °C in a humidified atmosphere containing 5% CO2. […] Each sample in the experimental group was treated with 10 µL of the FKFL-G2 dendrimer at the following concentrations: 12.5, 25, 50, 100, and 200 µg/mL. After 24 h of incubation, 10 µL of EZ-Cytox reagent (WST-8) was added to each well (except for that used as the negative control), which were incubated for a subsequent 2 h. Lastly, the absorbance of the wells measured a data wavelength of 450 nm via a colorimetric enzyme-linked immunosorbent assay (VERSAmax, Molecular Devices, Sunnyvale, CA, USA).

Data set [10] has as its system E. coli. Put plainly: Membrane permeabilization assay (NPN). The data set is classed as cell-based, Escherichia coli. The settings on record: 100 µL of 1 mg/mL in 1 mL, 30 min, HEPES pH 7.8, ex 350 / em 429 nm, n = 3. Here is the method: as §4
Data set [11] is described as follows: Critical aggregation concentration (CAC), Nile red fluorescence. The data set is classed as physicochemical. The settings on record: ex 550 nm, intensity at 650 nm, FKFL-G2 0.001 to 0.9 mg/mL. Here is the method:
In order to confirm whether FKFL-G2 forms an aggregate by itself, the CAC was measured by fluorescence spectroscopy using Nile red. A 1 mL solution of FKFL-G2 with a concentration range of 0.001 to 0.9 mg/mL was combined with 5 µL of Nile red (1 mM in MeOH) and mixed by vortexing. Subsequently, fluorescence was measured at wavelengths of 550 nm for excitation and 560–760 nm for emission using a fluorometer (LS45, Fluorescence Spectrometer, PerkinElmer), and the fluorescence intensity at 650 nm was analyzed to measure the values of the nanoparticles.

For data set [12], the system named is Escherichia coli (E. coli) DH5α, kanamycin-resistant. Description: Bacterial growth assay (turbidity, OD600). The data set is classed as cell-based. The settings on record: 100 µg/mL, 1-8 h. As for the experimental part: as §1

Where two headings read alike, the source gives them in different places.

For the molecule `CC1(C)S[C@@H]2[C@H](NC(=O)[C@H](N)c3ccccc3)C(=O)N2[C@H]1C(=O)O` [Ampicillin], the “biofilm formation inhibition rate” value in [1] was “approximately 98%”. In addition, in data set [2], the “bacterial growth, OD600 over time (in words)” value is listed as “remained stable”.

As for “phenylalanine (F)-lysine (K)-phenylalanine (F)-Leucine (L)-polyamidoamine generation 2 (PAMAM G2) [FKFL-G2]”, the figures for the Diameter in [3] (concentration 42.3 µM), in [3] (concentration 84.6 µM) and in data set [3] (concentration 169.2 µM) were 158.33 ± 12.59, 109.83 ± 17.54 and 98.45 ± 6.95, respectively. In addition, the “Polydispersity (PDI)” value in data set [3] (concentration 42.3 µM) is on record as 0.628 ± 0.14; in data set [3] (concentration 84.6 µM), 0.459 ± 0.18; in data set [3] (concentration 169.2 µM) it was 0.475 ± 0.03. For the same molecule, the “Zeta Potential” value in [3] (concentration 42.3 µM) was determined as 29.63 ± 6.51; in [3] (concentration 84.6 µM), 35.5 ± 6.0; in data set [3] (concentration 169.2 µM), 38.23 ± 5.74. Besides, the “biofilm formation inhibition rate” value in [1] is recorded as “approximately 98%”. Moreover, the “cell density in FE-SEM images (in words)” value in data set [4] and in [8] was “lowest” in each case. The “colony formation (in words)” value in data set [5] and in data set [7] was “strong antibacterial effect” in each case. Further, the “membrane permeabilization, NPN fluorescence (in words)” value in [6] and in [10] was “higher fluorescence than PAMAM G2” each time. Also, the figures for the cell viability entry in data set [9] (8.46 µM) and in [9] (16.9 µM) were “about 83%” and about 48%, respectively. For the same molecule, the “bacterial growth, OD600 over time (in words)” value in [2] is listed as “decreased over time”. The “Critical aggregation concentration (CAC)” value in [11] amounted to 31.03 µM.

For `NC[C@H]1O[C@H](O[C@H]2[C@H](O)[C@@H](O[C@H]3O[C@H](CO)[C@@H](O)[C@H](N)[C@H]3O)[C@H](N)C[C@@H]2N)[C@H](O)[C@@H](O)[C@@H]1O` [kanamycin, Kanamycin], the “biofilm formation inhibition rate” value in [1] is recorded as 75%. The “membrane permeabilization, NPN fluorescence (in words)” value in [6] and in [10] was “did not show any membrane perturbation effect” each time. For the same molecule, the entries for the “bacterial growth, OD600 over time (in words)” value in [12] and in data set [2] were “grew well” and “remained stable”, respectively.
